Data published in patent US20260297095A1, “NOVEL PYRROLOTRIAZINE DERIVATIVE AND USE THEREOF” (Pelemed Co., Ltd., priority 2024, published 2026).

How the values were obtained:
[1] = tested on: KYSE-70 esophageal cancer cell line; experiment: Cell growth inhibition of KYSE-70 (Sulforhodamine B); type: cell-based; details: KYSE-70, 72 hours; read-out: KYSE70 GI50
How it was run: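 KYSE-70 cells (YES1-amplified) in RPMI-1640 with 10% FBS were seeded 24 h before treatment with compound at 0.0046–10 µM final. After 72 h, cells were TCA-fixed and stained with sulforhodamine B, with absorbance read at 510 nm. GI50 was derived with a time-zero plate set to 0% and the vehicle control to 100%, in duplicate tests.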

TEAD (Homo sapiens) = target: T1, TEAD (Homo sapiens); experiment: TEAD inhibition, KYSE-70 TEAD luciferase reporter cell line; type: cell-based; details: KYSE-70 TEAD luciferase reporter cells, 24 hours, normalized by cell viability; read-out: KYSE70 TEAD IC50
T1 construct: lentiviral TEAD luciferase reporter read-out
T1 sequence (P07947 whole entry): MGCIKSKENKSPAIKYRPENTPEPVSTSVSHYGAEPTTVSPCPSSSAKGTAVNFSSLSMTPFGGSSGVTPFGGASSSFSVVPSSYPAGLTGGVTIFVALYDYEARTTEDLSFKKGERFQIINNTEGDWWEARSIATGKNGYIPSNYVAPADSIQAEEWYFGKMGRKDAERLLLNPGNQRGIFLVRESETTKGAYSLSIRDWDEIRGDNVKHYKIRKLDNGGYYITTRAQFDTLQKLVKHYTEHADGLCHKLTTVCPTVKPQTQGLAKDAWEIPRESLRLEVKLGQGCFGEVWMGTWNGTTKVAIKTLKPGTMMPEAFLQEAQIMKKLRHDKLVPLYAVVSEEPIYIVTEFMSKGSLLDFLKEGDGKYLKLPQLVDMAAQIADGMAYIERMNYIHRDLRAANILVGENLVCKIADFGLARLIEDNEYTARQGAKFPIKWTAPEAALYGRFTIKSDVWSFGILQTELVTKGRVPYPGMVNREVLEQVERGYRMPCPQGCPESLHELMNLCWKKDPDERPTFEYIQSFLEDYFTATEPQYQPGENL
Experimental: To evaluate the inhibitory activity on TEAD activity in KYSE-70 cells in which YES1 is overexpressed, the following experiment was performed.
TEAD luciferase reporter lentivirus (BPS Bioscience; TEAD luciferase reporter lentivirus) was co-cultured with KYSE-70 cell line for 48 hours, and then 1 μg/ml puromycin (Invitrogen) was added to the culture to induce cell death only in cells that were not infected with the virus, thereby generating a KYSE-70 cell line into which the TEAD luciferase reporter was introduced. The KYSE-70 TEAD luciferase reporter cell line was cultured in RPMI-1640 (Capricorn) supplemented with 10% FBS (Cellgro). The cells were seeded 24 hours prior to compound treatment into two 96-well F-bottom clear plates (Greiner) and two white clear bottom 96-well plates (Greiner), at 20,000 cells in 180 μL medium per well.
The 10 mM compound was diluted 100-fold in medium to prepare a 100 μM compound, then placed in a 96-well plate and further 3-fold diluted in medium to prepare a compound plate with concentrations ranging from 0.046 μM to 100 μM. 20 μL of each compound from the drug plate was injected into the cell-seeded plates to prepare the final concentrations 0.0046 μM to 10 μM. For TEAD activity measurement, 24 hours after compound treatment on the white clear bottom 96-well plate, 100 μL of medium was removed from each well, and 100 μL of One-Step™ Luciferase Assay System solution was added. After reacting at room temperature for 15 minutes, luminescence intensity was measured using a microplate reader (VICTOR X3, PerkinElmer). Since TEAD activity values needed to be normalized by cell viability, a cell viability assay was also performed. For measuring cell viability, 24 hours after compound treatment on the 96-well F-bottom clear plate, 50 μL of 33% trichloroacetic acid was added to each well and was fixed by incubating at 4° C. for 1 hour. After that, the plate was washed 5 times with sterile water, and 100 μL of 0.04% Sulforhodamine B solution in 1% acetic acid was added to react for 1 hour to stain the cells. After staining, the plates were washed 4 times with 1% acetic acid solution and completely dried. Then the Sulforhodamine B bound to cellular proteins was completely dissolved with 10 mM Tris base solution (pH 10.5). The absorbance was measured at a wavelength of 510 nm using a microplate reader (TECAN, sunrise microplate reader). The TEAD activity value and cell viability value were normalized, and a graph was drawn using the GraphPad Prism version 5.0 program, and the IC50 value was calculated.

YES1 kinase = YES1 kinase (Homo sapiens, UniProt P07947); experiment: YES1 kinase inhibition, ADP Glo assay (Promega); type: biochemical; details: for YES1 enzyme, % inhibition, 10 nM: compound 10 nM; for YES1 enzyme, % inhibition, 100 nM: compound 100 nM
YES1 kinase, sequence (P07947 whole entry): as above
How it was run: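 ADP-Glo luminescence after a 40 min room-temperature reaction of YES1 with ATP and substrate (buffer with MnCl2 and DTT; 10 min compound preincubation) was used as readout. Percent inhibition at 1, 10 and 100 nM compound was calculated relative to negative control after background subtraction, and IC50 values derived.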

Row | GI50 [1] [µM] | YES1 enzyme, % inhibition, 10 nM (YES1 kinase) [%] | YES1 enzyme, % inhibition, 100 nM (YES1 kinase) [%] | IC50 (YES1 kinase; class symbols, read-out: YES1 enzyme, IC50) [µM] | Substance | IC50 (TEAD (Homo sapiens)) [µM]
1 | ≤ 0.1 |  |  |  | tert-butyl (4-(4-amino-7-(4-aminopiperidin-1-yl)-6-methylpyrrolo[2,1-f][1,2,4]triazin-5-yl)-2-methoxyphenyl)carbamate [Example 78] | ≤ 0.1
2 | ≤ 0.1 | 77 | 93 |  | tert-butyl (4-(4-amino-7-(4-(dimethylamino)-4-methylpiperidin-1-yl)pyrrolo[2,1-f][1,2,4]triazin-5-yl)-2-methoxyphenyl)carbamate [Example 13] | ≤ 0.1
3 | 1 to 10 | 41 | 46 |  | tert-butyl (4-(4-amino-7-(6-(dimethylamino)pyridin-3-yl)pyrrolo[2,1-f][1,2,4]triazin-5-yl)-2-methoxyphenyl)carbamate [Example 6] | ≤ 0.1
4 | 1 to 10 | 30 | 36 |  | tert-butyl (4-(4-amino-7-(4-(tert-butyl)piperazin-1-yl)pyrrolo[2,1-f][1,2,4]triazin-5-yl)-2-methoxyphenyl)carbamate [Example 16] | 1 to 10
5 | 0.1 to 1 | 38 | 68 |  | tert-butyl (4-(4-amino-7-(4-(dimethylamino)-3-methoxyphenyl)pyrrolo[2,1-f][1,2,4]triazin-5-yl)-2-methoxyphenyl)carbamate [Example 5] | 0.1 to 1
6 | 0.1 to 1 |  |  | ≤ 0.1 | tert-butyl (4-(4-amino-7-(4-(methylamino)piperidin-1-yl)pyrrolo[2,1-f][1,2,4]triazin-5-yl)-2-methoxyphenyl)carbamate [Example 58] | ≤ 0.1
